Test results as given in US10383977B2, “Cardiovascular prostheses” (CorMatrix Cardiovascular, Inc., priority 2011, dated 2019).

Tested on: CCR2
Experiment: In vitro assay, TNF-α stimulated CCR2 expression in THP-1 cells (quantitative PCR)
Type: cell-based, human
Details: THP-1 cells treated with TNF-α
Description: In the following study, the activity of cerivastatin and other statins, including simvastatin, lovastatin and atorvastatin, was similarly assessed using the human monocytic cell line THP-1. The THP-1 cells were similarly seeded by preparing a solution of THP-1 cells at 6×10^5 cells/ml and loading the solution of THP-1 cells onto a cell culture plate. The in vitro assay included six (6) treatment groups, including one (1) control group consisting of untreated THP-1 cells, one (1) positive control group consisting of THP-1 cells treated with tumor necrosis factor alpha (TNF-α) alone, four (4) treatment groups consisting of THP-1 cells treated with TNF-α and cerivastatin, TNF-α and simvastatin, TNF-α and lovastatin and TNF-α and atorvastatin. In this study, the THP-1 cells were treated with TNF-α to stimulate the production of CCR2. Each of the six (6) THP-1 cell samples were harvested and collected in a sealable vial and centrifuged to separate the liquid media from the THP-1 cells. The THP-1 cells were then collected and used for RNA extraction and quantitative PCR.

| SMILES | expression of CCR2 |
| --- | --- |
| CC[C@H](C)C(=O)O[C@H]1C[C@@H](C)C=C2C=C[C@H](C)[C@H](CC[C@@H]3C[C@@H](O)CC(=O)O3)[C@H]21 [lovastatin] | did not, however, restrict CCR2 expression at levels comparable to cerivastatin |
| CC(C)c1c(C(=O)Nc2ccccc2)c(-c2ccccc2)c(-c2ccc(F)cc2)n1CC[C@@H](O)C[C@@H](O)CC(=O)O [atorvastatin] | did not, however, restrict CCR2 expression at levels comparable to cerivastatin |
